From patent US6235771A, “Anilide derivative, production and use thereof” (Takeda Chemical Industries, Ltd., priority 1998, dated 2001)

Tests used:
HIV-1 BA-L = assay: Inhibitory effect on HIV-1 infection to MAGI-CCR5 cell (β-galactosidase activity); type: cell-based; settings: 100 μl of medium containing 1.6 μM Test Compound plus 100 μl of medium containing 300PFU HIV-1 BA-L; MAGI-CCR5 cells; 37° C., 2 days
Description: The plasmid where β-galactosidase gene was ligated downstream of HIV-1 LTR was introduced into CD4 positive HeLa cell, to which human CCR5 was further introduced to obtain transformant MAGI-CCR5. By using said transformant MAGI-CCR5, degree of HIV-1 infection was calculated from β-galactosidase activity (blue color due to decomposition of 5-bromo-4-chloro-3-indolyl-β-D-galactopyranoside). Specifically, MAGI-CCR5 cells were suspended in DMEM medium containing 10% serum to prepare 5×10^4 cells/ml suspension. To each well of 96 well plate was inoculated 200 μl of the suspension, and the cells were cultivated at 37° C. overnight. The medium was removed by means of suction, and to the residue was added 100 μl of the above medium containing 1.6 μM of Test Compound and 100 μl of the above medium containing 300PFU of HIV-1 BA-L cells. The cells were cultivated at 37° C. for 2 days. The medium was removed by means of suction. To the residue was added 200 μl of cell fixative (PBS containing 1% formaldehyde and 0.2% glutaraldehyde), and the mixture was allowed to stand at room temperature for 5 minutes and washed twice with PBS. To the mixture was added 100 μl of staining solution (PBS containing […] and 0.4 mg/ml X-gal), and the mixture was allowed to stand at 37° C. for 50 minutes and washed twice with PBS. The number of blue cells was counted by microscope and defined as the number of cells infected with HIV-1. According to this method, inhibition rate on HIV-1 infection was determined.

human CCR5 = target: T1, human CCR5 (Homo sapiens, UniProt P51681); assay: Inhibition of [125I]-RANTES binding to human CCR5 in CHO/CCR5 cells (CCR5 antagonistic activity); settings: Test Compound 1 μM, 100 pM [125I]-RANTES, room temperature, 40 minutes, read-out: Inhibition Rate (CCR5 binding)
T1 construct: expressed in transfected cells; host or cells: CHO-K1 cells, electroporated with plasmid pCKR5 (pcDNA3.1 backbone), geneticin-selected (CHO/CCR5)
T1 sequence (P51681 whole entry): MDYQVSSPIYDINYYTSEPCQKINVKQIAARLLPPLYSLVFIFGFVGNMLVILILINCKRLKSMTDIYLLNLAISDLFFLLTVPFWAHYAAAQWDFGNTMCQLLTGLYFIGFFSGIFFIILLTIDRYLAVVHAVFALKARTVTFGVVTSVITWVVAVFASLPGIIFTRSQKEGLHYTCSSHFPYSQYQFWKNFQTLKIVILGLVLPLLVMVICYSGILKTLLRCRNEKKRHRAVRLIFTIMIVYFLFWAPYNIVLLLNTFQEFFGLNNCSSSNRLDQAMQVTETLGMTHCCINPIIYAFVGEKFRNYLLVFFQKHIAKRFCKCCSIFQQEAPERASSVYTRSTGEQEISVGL
Description: Cloning of CCR5 gene was carried out by PCR (polymerase chain reaction) from human spleen cDNA. With using 0.5 ng of spleen cDNA (Toyobo, QUICK-Clone cDNA) as template, PCR was performed in DNA Thermal Cycler 480 (Perkin-Elmer) (reaction conditions: 30 cycles of 95° C. for 1 minute, 60° C. for 1 minute, and 75° C. for 5 minutes) by adding primer set, 5'-[…]-3' (25 pmol) and 5'-[…]-3' (25 pmol), which were designed referring to nucleotide sequence of CCR5 gene reported by Samson et al. (Biochemistry, 35(11), 3362-3367 (1996)) and by using TaKaRa EX Taq (TakaraShuzo). The resultant PCR product was subjected to agarose gel. electrophoresis to collect about 1.0 kb DNA fragment, which was subjected to Original TA Cloning Kit (Funakoshi) to carry out cloning of CCR5 gene.
The plasmid obtained in the above (1) was digested with restriction enzymes XbaI (Takara Shuzo) and BamHI (Takara Shuzo) and subjected to agarose gel electrophoresis to collect about 1.0 kb DNA fragment. The DNA fragment was mixed with plasmid pcDNA3.1 (Funakoshi) for expression in animal cells, said plasmid being digested with XbaI and BamHI, and they were ligated with DNA Ligation Kit Ver.2 (Takara Shuzo). The resulting plasmid was subjected to transformation of competent cell of E. coli JM109 (Takara Shuzo) to obtain plasmid pCKR5.
CHO-K1 cells were grown in 750 ml of tissue culture flask (Becton Dickinson) using Ham's F12 medium (Nihon Pharmaceutical) containing 10% fetal calf serum (Life Tech Oriental) and took off with 0.5 g/L trypsin-0.2 g/L EDTA (Life Tech Oriental). The cells were washed with PBS (Life Tech Oriental), centrifuged (1000 rpm, 5 minutes), and suspended in PBS. With using Gene Pulser (Bio-Rad Laboratories), DNA was introduced into the cells under the conditions shown below. That is, to the cuvette of 0.4 cm gap were added 8×10^6 cells and 10 μg of plasmid pCKR5 for expression of human CCR5, and electroporation was carried out under 0.25 kV of voltage and 960 μF of capacitance. The cells were transferred into Ham's F12 medium (Nihon Pharmaceutical) containing 10% fetal calf serum, and cultivated for 24 hours. The cells were again took off and centrifuged, and suspended in Ham's F12 medium (Nihon Pharmaceutical) containing 10% fetal calf serum and 500 μg/ml of geneticin (Life Tech Oriental). The suspension was diluted to give 10^4 cells/ml of the suspension, which was inoculated on 96 well plate (Becton Dickinson) to give geneticin resistant cells. The resulting geneticin resistant cells were cultivated in 96 well plate (Becton Dickinson), and cells expressing CCR5 were selected from the geneticin resistant cells. That is, in assay buffer (Ham's F12 medium containing 0.5% BSA and 20 mM HEPES (Wako Pure Chemical, pH7.2) to which was added 200 pM of [^125 I]-RANTES (Amersham) as ligand, binding reaction was carried out at room temperature for 40 minutes, and the buffer was washed with cooled PBS. To the buffer was added 50 μl/well of 1M NaOH, and the mixture was stirred. Radioactivity was determined with γ-counter to select CHO/CCR5 cells which specifically bind to the ligand.
The CHO/CCR5 were inoculated on 96 well microplate (5×10^4 cells/well) and cultivated for 24 hours. The medium was removed by means of suction, and to each well was added assay buffer containing Test Compound (1 μM) and then 100 pM of [^125 I]-RANTES (Amersham) as ligand. Binding assay was carried out at room temperature for 40 minutes, and assay buffer was removed by means of suction. Each well was washed twice with cooled PBS, and 200 μl of Microscint-20 (Packard Instrument, Inc.) was added to each well. Radio-activity was determined with Top-Count Micro Scintillation Counter (Packard Instrument, Inc.).
According to the method described above, inhibition rate of Test Compound (whose number is referred to in the following Examples) to CCR5 binding.

SMILES	Inhibition Rate (HIV-1 infection) (HIV-1 BA-L) [%]	inhibition at 1 µM (human CCR5) [%]
CCCOc1ccc(-c2ccc3c(c2)C=C(C(=O)Nc2ccc(CN(C)C4CCOCC4)cc2)CCS3(=O)=O)cc1 [Compound 29, N-[4-[N-methyl-N-(tetrahydropyran-4-yl)aminomethyl]phenyl]-7-(4-propoxyphenyl)-1,1-dioxo-2,3-dihydro-1-benzothiepine-4-carboxamide]	91	100
CCCCOc1ccc(-c2ccc3c(c2)C=C(C(=O)Nc2ccc(CN(C)C4CCOCC4)cc2)CCS3(=O)=O)cc1 [Compound 30, 7-(4-butoxyphenyl)-N-[4-[N-methyl-N-(tetrahydropyran-4-yl)aminomethyl]phenyl]-1,1-dioxo-2,3-dihydro-1-benzothiepine-4-carboxamide]	91	99
CCCOCCOc1ccc(-c2ccc3c(c2)C=C(C(=O)Nc2ccc(CN(C)C4CCOCC4)cc2)CCS3(=O)=O)cc1 [Compound 97, N-[4-[[N-methyl-N-(tetrahydropyran-4-yl)amino]methyl]phenyl]-7-[4-(2-propoxyethoxy)phenyl]-1,1-dioxo-2,3-dihydro-1-benzothiepine-4-carboxamide]	87	92
CCCCOCCOc1ccc(-c2ccc3c(c2)C=C(C(=O)Nc2ccc(CN(C)C4CCOCC4)cc2)CCS3(=O)=O)cc1 [Compound 98, 7-[4-(2-butoxyethoxy)phenyl]-N-[4-[[N-methyl-N-(tetrahydropyran-4-yl)amino]methyl]phenyl]-1,1-dioxo-2,3-dihydro-1-benzothiepine-4-carboxamide]	91	98
CCOCCOc1c(C)cc(-c2ccc3c(c2)C=C(C(=O)Nc2ccc(CN(C)C4CCOCC4)cc2)CCS3(=O)=O)cc1C [Compound 124, 7-[4-(2-ethoxyethoxy)-3,5-dimethylphenyl]-N-[4-[[N-methyl-N-(tetrahydro-2H-pyran-4-yl)amino]methyl]phenyl]-1,1-dioxo-2,3-dihydro-1-benzothiepine-4-carboxamide]	–	97
CCCOc1ccc(-c2ccc3c(c2)C=C(C(=O)Nc2ccc(CN(C)C4CCOCC4)cc2)CCS3(=O)=O)cc1OCC [Compound 125, 7-(3-ethoxy-4-propoxyphenyl)-N-[4-[[N-methyl-N-(tetrahydro-2H-pyran-4-yl)amino]methyl]phenyl]-1,1-dioxo-2,3-dihydro-1-benzothiepine-4-carboxamide]	–	92
CCOCCOc1ccc(-c2ccc3c(c2)C=C(C(=O)Nc2ccc(CN(C)C4CCOCC4)cc2)CCS3(=O)=O)cc1C [Compound 129, 7-[4-(2-ethoxyethoxy)-3-methyl-phenyl]-N-[4-[[N-methyl-N-(tetrahydropyran-4-yl)amino]methyl]phenyl]-1,1-dioxo-2,3-dihydro-1-benzothiepine-4-carboxamide]	–	95
